Columns and labels:
[1] = test system: rice seed variety CL 151; assay: Greenhouse trial of zinc-treated rice seed in Zn deficient soil mix: germination rate; format: in vivo; conditions: plus insecticide/fungicide mixture, Zn deficient potting mix 1.97 ppm Zn
Source text: (§1) For the inventive composition, ZnEDTA (in the form of Dissolvine E-Zn-15 having 3% free zinc, Akzo Nobel, IL., USA) was applied as a 20% w/w aqueous solution at rates of 1.18 1.47 and 1.76 g ZnEDTA/kg seed. This was accomplished by using 8, 10 or 12 fl oz per cwt.
(§2) For the first comparative composition, ZnSO4 was applied as a 24.7% solution at a rate of 1.90 g ZnSO4/kg seed (in the form of ZINC PLUS having 10% free zinc, DeltAg, MS, USA). This was accomplished by using 10 fl oz per cwt.
(§3) For the second comparative composition, ZnO was applied as a 32.50% aqueous suspension at a rate of 2.00 g ZnO/kg seed (in the form of ZINCHE ST having 26% free zinc, Drexel Chemical Co, TN, USA). This was accomplished by using 8 fl oz per cwt.
(§4) This was done by preparing a mixture of each zinc-containing compound with the insecticide/fungicide mixture and adding water to make a total of 25 fl oz per ctw (thiamethoxam at 1.80 g/kg seed, fludioxonil at 0.015 g/kg seed, azoxystrobin at 0.07 g/kg seed, metalaxyl-M at 0.09 g/kg seed and sedaxane at 0.01 g/kg seed; commercial products available as e.g. CRUISER MAXX and VIBRANCE, both Syngenta Crop Protection, NC, USA). Also evaluated were untreated control and seeds having only the conventional insecticide and fungicide treatment.
(§5) For all test groups, one (1) kg batches of rice seed variety CL 151 (Clearfield Seed, Horizon Ag, TN, USA) were treated on a Hege seed treater (Wintersteiger AG, Austria) using a standard protocol. The seeds were allowed to dry.
Standard commercial greenhouse containers, 10 cm diameter by 9 cm deep, were filled with 350 cc of a rooting media mix consisting of 33% (v/v) Zn deficient soil collected in Arkansas, USA and then sterilized in an autoclave and 66% (v/v) commercial planting mix (NB peat, Fafard, MA, USA). Analysis of the potting mix confirmed that the zinc levels were low, at 1.97 ppm and pH levels were <7. […]
Ten days after planting (10 DAP) a drip irrigation emitter was installed on each pot. […] Germination rates were recorded and at 11 DAP rice seedlings were thinned to 5 plants per pot. […]

[2] = test system: rice seed variety CL 151; assay: Greenhouse trial of zinc-treated rice seed in Zn deficient soil mix: total zinc uptake in dry above ground plant tissue; format: in vivo; conditions: dry above ground tissue harvested 29 DAP, plus insecticide/fungicide mixture
Source text: as §1, §2, §3, §4, §5
Standard commercial greenhouse containers, 10 cm diameter by 9 cm deep, were filled with 350 cc of a rooting media mix consisting of 33% (v/v) Zn deficient soil collected in Arkansas, USA and then sterilized in an autoclave and 66% (v/v) commercial planting mix (NB peat, Fafard, MA, USA). Analysis of the potting mix confirmed that the zinc levels were low, at 1.97 ppm and pH levels were <7.
Prior to planting the soil was moistened with 200 ml tap water per pot. Eight seeds were sown per pot by placing them on soil surface then lightly covering with 0.5 cm of loose peat. […] Pots were transferred to greenhouse and maintained at 30/24° C. day/night temperature with 16 hours of supplemental high pressure sodium light. All pots were lightly watered manually every 2 to 3 days to prevent dehydration of the germination zone.
Ten days after planting (10 DAP) a drip irrigation emitter was installed on each pot. The irrigation system was set to deliver 100 ml of tap water each morning and again each evening. Germination rates were recorded and at 11 DAP rice seedlings were thinned to 5 plants per pot. By 17 DAP rice plants were in the V3 growth stage. At 18 DAP nitrogen fertilizer (urea) was added to the irrigation water at 200 ppm for the duration of trial. At 22 DAP rice plants were in the V4 growth stage with first tiller forming.
At 29 DAP rice plants were in the V5 growth stage with 3 tillers. The above ground plant tissue was harvested and placed in paper bags. Bags were placed in an oven set at 100° C. for 72 hours to dry. The dry tissue was removed from the bags and weighed. Samples of the dry tissue were analyzed for total zinc uptake (MicroMacro International, Inc. Labs, GA, USA).

[3] = test system: rice seed; conditions: 1.4 g ZnEDTA/kg rice seed; cited from earlier work

## O=C(O)CN(CCN(CC(=O)O)CC(=O)O)CC(=O)O.[Zn] [ZnEDTA, zinc ethylenediaminetetraacetic acid]
[1]; 1.47 g Zn complex/kg seed
  Germination rate (%): 45%
[2]; 1.18 g Zn complex/kg seed
  Zinc uptake (ppm): 275.47 ppm
[2]; 1.47 g Zn complex/kg seed
  Zinc uptake (ppm): 304.74 ppm
[2]; 1.76 g Zn complex/kg seed
  Zinc uptake (ppm): 316.00 ppm
[3]
  Outcome of rice seed treatment: not successful

## [O]=[Zn] [ZnO, Zinc oxide, reference compound]
[1]; 2.00 g Zn complex/kg seed
  Germination rate (%): 42%
[2]; 2.00 g Zn complex/kg seed
  Zinc uptake (ppm): 253.65 ppm

## O=S(=O)([O-])[O-].[Zn+2] [ZnSO4, Zinc sulfate, reference compound]
[1]; 1.90 g Zn complex/kg seed
  Germination rate (%): 43%
[2]; 1.90 g Zn complex/kg seed
  Zinc uptake (ppm): 237.50 ppm

Source: patent publication US20150282486A1, “RICE SEED TREATMENT COMPOSITION” (SYNGENTA PARTICIPATIONS AG, priority 2014, published 2015)
